Source: patent US6537545B1, “Use of corneal hardening agents in enzymeorthokeratology” (ISTA Pharmaceuticals, Inc., priority 1998, dated 2003)

Columns and labels:
Format in all cases: in vivo
[1] = tested on: eyes of myopic human subjects; test: Mild myopia study, group III: corrective lenses and 3% glyceraldehyde without hyaluronidase (Example 9); conditions: no hyaluronidase; subject 011; three month follow-up point; baseline 20/20
Dutch Belted rabbit eyes [2] = test: GLP safety study, slit lamp biomicroscopy and intraocular pressure (Example 3)
Experimental: This study was conducted in compliance with the Good Laboratory Practices requirements of the U.S. Food and Drug Administration. Here, 27 eyes were randomly chosen to form the control group and the remaining 27 eyes formed the experimental group. All of the animals received ophthalmic examinations consisting of slit lamp biomicroscopy (as described in Experiment 2) and intraocular pressure measurements (IOP) as generally practiced in the art, before the experiment began to establish baseline conditions.
Following baseline examinations, all rabbits received 500 IU in 20 μL of hyaluronidase into the corneal stroma bilaterally using the injection method described in Experiment 1. No examinations or treatments were performed on the animals until Study Day 8. On Study Day 8, the animals received slit lamp examinations and IOP measurements.
Treatment with topical eyedrops began immediately after the Day 8 examinations. Each rabbit received 2 drops of test agent four times a day at 05:00, 09:00, 13:00 and 17:00. The 3% glyceraldehyde solution was prepared in 0.9% sodium chloride USP under Good Manufacturing Practices (GMP). The 0.9% sodium chloride for injection was also prepared using GMP. Each rabbit eye in the experimental group received the 3% glyceraldehyde solution while the control eyes received a 0.9% sodium chloride solution. […]

Dutch Belted rabbit eyes [3] = test: GLP safety study, histopathology (Example 3); conditions: rarely noted in both glyceraldehyde and saline treated groups; Study Day 40
Text: On Study Day 40, after 32 days of drops, the animals were sacrificed and the eyes were harvested according to the methods described in Experiment 2. The eyes were fixed in half-strength Karnovsky's fixative as described in Experiment 2 and sent to a Board Certified Veterinary Pathologist for interpretation.

[4] = tested on: eye of myopic human patient; test: Safety and efficacy of hyaluronidase and topical 3% glyceraldehyde solution, myopia in a human patient (Example 8); conditions: 50 IU hyaluronidase, lenses, 3% glyceraldehyde drops 15 days; monitored 196 days
Experimental: In this study, a single subject was selected to test the safety and efficacy of using hyaluronidase and a glyceraldehyde solution to treat sub-optimal visual acuity. In this study, the subject was first medically evaluated and a baseline was established. A medical history of the subject was taken and a detailed examination of the subject's eyes was also performed. The subject's eyes were tested to determine: refraction, cell count, intraocular pressure (IOP), pachymetry, corneal topography and corneal elasticity. A slit-lamp examination was also performed to establish the health of the eyes. Also, the presence of any general or ocular discomfort of the subject was noted.
Following the establishment of a baseline reading (UVA 20/300), the subject was administered a single intrastromal injection of 50 IU hyaluronidase prior to the orthokeratology treatment. Following 7 days of incubation of the subject's eyes with the injected material, the subject was fitted with corrective contact lenses for overnight wear. The subject wore the corrective lenses day and night for a period of seven (7) days. At this point the subject's visual acuity was 20/15. […] The visual acuity of the subject was then monitored for 196 days to determine the effect of the treatment on the unaided visual acuity of the subject;

[5] = tested on: eyes of non-sighted human patients; test: Safety of enzymatic corneaplasty with hyaluronidase and topical 3% glyceraldehyde in two non-sighted human patients (Example 4)
Experimental: The two patients (Nos. 1108 and 1105) each received an intrastromal injection of 500 IU of hyaluronidase. […] Patient 1108 wore the lenses for 21 days while patient 1105 wore the lenses for 50 days.
Patient 1108 was treated according to the protocol outline above. After the 21 day lens wearing period had expired, the patient was instructed to apply two (2) drops of the 3% glyceraldehyde solution four times per day. The application of 3% glyceraldehyde continued for thirty-six (36) days after lens wear had ceased. Following termination of the 3% glyceraldehyde treatment, the patient was examined occasionally and the final examination was administered 126 days following the cessation of glyceraldehyde treatment.
This patient was treated as described above and wore the RGP lenses for 50 days. Unlike patient 1108, patient 1105 was treated with the 3% glyceraldehyde solution for one (1) month while the patient was wearing the RGP contact lenses. The 3% glyceraldehyde solution was applied four times per day for a total period of 43 days.

[6] = tested on: eyes of non-sighted human patients; test: Safety of enzymatic corneaplasty with hyaluronidase and topical 3% glyceraldehyde in seven non-sighted human patients (Example 6); conditions: 500 IU hyaluronidase, lenses, 3% glyceraldehyde 2 drops 4 times per day, 28 days
Experimental: The methodology used in this study was similar to that discussed in Example 4. Subjects were injected intrastromally with 500 IU of a hyaluronidase solution on the first day of the study following an initial eye examination. The injected enzyme was allowed to digest the corneal substrate for seven (7) days. At that time contact lenses were fitted to the treated eyes of the subjects. The subjects wore the lenses for another seven days at which time the topical application of the 3% glyceraldehyde solution was first applied. The 3% glyceraldehyde solution was applied at 2 drops, 4 times per day for the following 28 days. At the end of the 28 days the contact lenses were removed and the glyceraldehyde treatments were ceased.
The subjects were examined and data was recorded throughout the treatment period and following the cessation of treatment. […] The only apparent negative effects of the treatment were incidents of edema and minor manifestations of SPK. These negative manifestations resolved favorably for most patients.

[7] = tested on: Dutch Belted rabbit corneas; test: Histopathologic examination of harvested corneas (Example 1); conditions: rabbits; eyes harvested Study Day 58
Experimental: The animals were sacrificed and their eyes were harvested on Study Day 58. The animals in the study were euthanised using an intravenous injection of pentobarbital (2 mg/kg). The eyes of the animals were enucleated immediately after sacrifice using Castro-Viejo scissors. The corneas of the eyes were then removed and placed on the end of a glass tube and cut in half. These samples were then snap frozen in liquid nitrogen. […] The corneas were then sectioned, stained with hematoxylin/eosin and the slides were sent to a Board-certified Veterinary Pathologist for interpretation.

How did the “UVA at follow-up after end of treatment” value [1] turn out when `O=CC(O)CO` (centres unmarked) [glyceraldehyde] was run?
The value was 20/40.

What about the “overall deleterious effects in rabbits” value (Dutch Belted rabbit eyes [2]; 3% glyceraldehyde solution, 32 days) of the same compound?
Its value is “no significant deleterious effects”.

What about the “number of the 14 criteria (slit lamp findings, IOP) with statistically significant differences between control and glyceraldehyde treated groups” value (Dutch Belted rabbit eyes [2]; 27 rabbits, 500 IU hyaluronidase bilaterally, 3% glyceraldehyde 2 drops four times a day, 32 days vs 0.9% sodium chloride, any timepoint) of the same compound?
The value was “None”.

And the “histopathology: focal increase in cellularity of corneal stroma, reduplication of Descemet's membrane, relation to treatment” value (Dutch Belted rabbit eyes [3])?
Its value is “not associated with treatment with the drops”.

And the “duration of correction of unaided visual acuity” value [4]?
Its value is “more than six months”.

And the “level of SPK after termination of lens wear while continuing 3% glyceraldehyde” value ([5]; patient 1105)?
The value was “observed to decrease”.

What about the “level of superficial punctate keratopathy (SPK) during lens wear and 3% glyceraldehyde application” value ([5]; patient 1105, 500 IU hyaluronidase, RGP lenses 50 days, drops four times per day, 43 days) of the same compound?
Its value is “not observed to increase”.

What about the “appearance of corneas at follow-up” value ([5]; patient 1105, 98 days post cessation of glyceraldehyde treatment) of the same compound?
The value was “appeared normal”.

What about the “appearance of corneas under slit-lamp biomicroscopy” value ([5]; patient 1105, within 48 hours of ceasing the 43 day glyceraldehyde treatment) of the same compound?
Its value is “appeared normal under slit-lamp biomicroscopy and were free of any SPK”.

And the “effects on the stroma or the endothelial cells during glyceraldehyde treatment” value ([5]; patient 1108, 500 IU hyaluronidase, lenses 21 days, then 3% glyceraldehyde 2 drops four times per day, 36 days)?
Its value is “did not indicate any deleterious effects”.

And the “adverse reactions after completion of treatment” value ([5]; patient 1108, after the 36 day protocol up to final examination 126 days after cessation)?
Its value is “Nor were there any adverse reactions observed”.

And the “overall observable negative results” value ([5]; two non-sighted human patients)?
The value was “no observable negative results”.

And the “negative effects of enzyme injection or glyceraldehyde application” value [6]?
Its value is “no significant negative effects”.

What about the “histopathologic differences between corneas of control and treated groups” value [7] of the same compound?
Its value is “no appreciable differences”.
